Data published in patent publication US9815847B2 (Icahn School of Medicine at Mount Sinai, priority 2013, dated 2017).

Tests used:
Assay in all cases: Kinase inhibition assay
Format in all cases: biochemical
Settings in all cases: 10 μM ATP; 5-dose IC50 mode
ABL1 = target: T1, ABL1 (Homo sapiens, UniProt P00519)
T1 construct: purchased Reaction Biology Corporation
Procedure: (§1) Kinase assays were performed at Reaction Biology Corporation. To a freshly prepared buffer solution was added the target kinase at a concentration of […]. The contents were mixed gently, and then compound 8h dissolved in DMSO was added to the reaction mixture in the appropriate concentration. The mixture was incubated at room temperature for 30 min. prior to addition of ATP to initiate the reaction. Compound 8h was tested in a 5-dose IC50 mode with 10-fold serial dilutions starting at 10 μM. For each of the kinases, a control compound in a 10-dose IC50 mode with 3-fold serial dilutions starting at 20 μM. The control compounds were GW5074 (3-(3,5-dibromo-4-hydroxy-benzylidene)-5-iodo-1,3-dihydro-indol-2-one) for BRAF, CK2a and RAF1, D4476 (4-[4-(2,3-dihydro-1,4-benzodioxin-6-yl)-5-(2-pyridinyl)-1H-imidazol-2-yl]benzamide) for CK1d; Wee1 inhibitor (4-(2-chlorophenyl)-9-hydroxypyrrolo[3,4-c]carbazole-1,3-(2H,6H)-dione) for WEE1 and saturosporine for other kinases. Reaction was carried out at 10 μM ATP concentration.

AKT1 = target: T2, AKT1 (Homo sapiens, UniProt P31749)
T2 construct: purchased Reaction Biology Corporation
T2 sequence (P31749 whole entry): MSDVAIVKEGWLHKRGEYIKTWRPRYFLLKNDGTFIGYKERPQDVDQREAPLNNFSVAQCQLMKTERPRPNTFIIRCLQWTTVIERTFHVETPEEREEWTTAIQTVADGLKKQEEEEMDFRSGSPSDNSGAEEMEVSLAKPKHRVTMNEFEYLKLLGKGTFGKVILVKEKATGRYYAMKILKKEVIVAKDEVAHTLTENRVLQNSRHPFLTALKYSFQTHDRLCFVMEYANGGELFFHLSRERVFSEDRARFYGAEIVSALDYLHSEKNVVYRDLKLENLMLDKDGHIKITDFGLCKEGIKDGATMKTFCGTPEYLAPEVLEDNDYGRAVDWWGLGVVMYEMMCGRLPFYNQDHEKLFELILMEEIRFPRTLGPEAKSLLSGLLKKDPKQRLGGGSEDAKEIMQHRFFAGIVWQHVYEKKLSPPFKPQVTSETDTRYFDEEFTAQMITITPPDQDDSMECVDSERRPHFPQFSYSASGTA
Procedure: as §1

ARK5/NUAK1 = target: T3, ARK5/NUAK1 (Homo sapiens, UniProt O60285)
T3 construct: purchased Reaction Biology Corporation
Procedure: as §1

Aurora B = target: T4, Aurora B (Homo sapiens, UniProt Q96GD4)
T4 construct: purchased Reaction Biology Corporation
T4 sequence (Q96GD4 whole entry): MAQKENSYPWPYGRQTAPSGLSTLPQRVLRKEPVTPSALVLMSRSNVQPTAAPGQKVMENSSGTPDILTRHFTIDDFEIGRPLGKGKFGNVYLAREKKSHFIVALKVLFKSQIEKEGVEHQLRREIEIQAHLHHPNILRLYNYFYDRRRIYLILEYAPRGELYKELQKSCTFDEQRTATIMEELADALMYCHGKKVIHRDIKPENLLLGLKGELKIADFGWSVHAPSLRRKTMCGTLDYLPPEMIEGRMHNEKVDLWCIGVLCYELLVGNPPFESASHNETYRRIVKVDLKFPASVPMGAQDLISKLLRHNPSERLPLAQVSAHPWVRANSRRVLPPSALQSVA
Procedure: as §1

CDK2/cyclin A = target: T5, CDK2/cyclin A (Homo sapiens, UniProt P24941)
T5 construct: purchased Reaction Biology Corporation
Procedure: as §1

CDK6/cyclin D1 = target: T6, CDK6/cyclin D1 (Homo sapiens, UniProt Q00534)
T6 construct: purchased Reaction Biology Corporation
Procedure: as §1

CHK2 = target: T7, CHK2 (Homo sapiens, UniProt O96017)
T7 construct: purchased Reaction Biology Corporation
Procedure: as §1

FLT3 = target: T8, FLT3 (Homo sapiens, UniProt P36888)
T8 construct: purchased Reaction Biology Corporation
Procedure: as §1

JAK1 = target: T9, JAK1 (Homo sapiens, UniProt P23458)
T9 construct: purchased Reaction Biology Corporation
T9 sequence (P23458 whole entry): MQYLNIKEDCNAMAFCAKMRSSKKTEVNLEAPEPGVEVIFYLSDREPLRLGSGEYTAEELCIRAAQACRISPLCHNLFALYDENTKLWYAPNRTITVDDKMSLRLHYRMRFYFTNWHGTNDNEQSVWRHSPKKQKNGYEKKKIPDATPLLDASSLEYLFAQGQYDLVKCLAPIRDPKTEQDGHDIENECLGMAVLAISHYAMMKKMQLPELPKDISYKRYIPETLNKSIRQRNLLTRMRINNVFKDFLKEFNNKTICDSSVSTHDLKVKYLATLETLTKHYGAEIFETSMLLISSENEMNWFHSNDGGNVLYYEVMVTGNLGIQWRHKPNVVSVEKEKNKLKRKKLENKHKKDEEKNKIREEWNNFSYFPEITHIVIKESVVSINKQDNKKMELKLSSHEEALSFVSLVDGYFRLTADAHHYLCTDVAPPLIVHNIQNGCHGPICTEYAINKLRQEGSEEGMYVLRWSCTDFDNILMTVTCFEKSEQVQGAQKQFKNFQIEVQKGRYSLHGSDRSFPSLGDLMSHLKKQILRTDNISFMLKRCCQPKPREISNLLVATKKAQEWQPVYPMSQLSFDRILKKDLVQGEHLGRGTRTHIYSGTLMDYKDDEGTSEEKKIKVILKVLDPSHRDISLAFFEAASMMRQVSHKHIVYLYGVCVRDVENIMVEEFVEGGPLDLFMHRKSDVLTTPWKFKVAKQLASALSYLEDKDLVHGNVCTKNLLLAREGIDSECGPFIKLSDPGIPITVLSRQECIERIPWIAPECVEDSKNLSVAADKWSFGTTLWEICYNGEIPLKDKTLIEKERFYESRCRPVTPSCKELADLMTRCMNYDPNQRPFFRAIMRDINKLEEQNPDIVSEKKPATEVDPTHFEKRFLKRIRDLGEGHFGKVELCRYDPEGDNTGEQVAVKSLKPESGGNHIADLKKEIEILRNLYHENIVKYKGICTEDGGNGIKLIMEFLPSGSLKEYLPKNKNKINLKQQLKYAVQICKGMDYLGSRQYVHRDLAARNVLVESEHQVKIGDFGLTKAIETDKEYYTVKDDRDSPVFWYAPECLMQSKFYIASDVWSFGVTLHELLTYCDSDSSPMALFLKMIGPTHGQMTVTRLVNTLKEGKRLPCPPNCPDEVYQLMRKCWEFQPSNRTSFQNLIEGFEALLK
Procedure: as §1

JAK3 = target: T10, JAK3 (Homo sapiens, UniProt P52333)
T10 construct: purchased Reaction Biology Corporation
T10 sequence (P52333 whole entry): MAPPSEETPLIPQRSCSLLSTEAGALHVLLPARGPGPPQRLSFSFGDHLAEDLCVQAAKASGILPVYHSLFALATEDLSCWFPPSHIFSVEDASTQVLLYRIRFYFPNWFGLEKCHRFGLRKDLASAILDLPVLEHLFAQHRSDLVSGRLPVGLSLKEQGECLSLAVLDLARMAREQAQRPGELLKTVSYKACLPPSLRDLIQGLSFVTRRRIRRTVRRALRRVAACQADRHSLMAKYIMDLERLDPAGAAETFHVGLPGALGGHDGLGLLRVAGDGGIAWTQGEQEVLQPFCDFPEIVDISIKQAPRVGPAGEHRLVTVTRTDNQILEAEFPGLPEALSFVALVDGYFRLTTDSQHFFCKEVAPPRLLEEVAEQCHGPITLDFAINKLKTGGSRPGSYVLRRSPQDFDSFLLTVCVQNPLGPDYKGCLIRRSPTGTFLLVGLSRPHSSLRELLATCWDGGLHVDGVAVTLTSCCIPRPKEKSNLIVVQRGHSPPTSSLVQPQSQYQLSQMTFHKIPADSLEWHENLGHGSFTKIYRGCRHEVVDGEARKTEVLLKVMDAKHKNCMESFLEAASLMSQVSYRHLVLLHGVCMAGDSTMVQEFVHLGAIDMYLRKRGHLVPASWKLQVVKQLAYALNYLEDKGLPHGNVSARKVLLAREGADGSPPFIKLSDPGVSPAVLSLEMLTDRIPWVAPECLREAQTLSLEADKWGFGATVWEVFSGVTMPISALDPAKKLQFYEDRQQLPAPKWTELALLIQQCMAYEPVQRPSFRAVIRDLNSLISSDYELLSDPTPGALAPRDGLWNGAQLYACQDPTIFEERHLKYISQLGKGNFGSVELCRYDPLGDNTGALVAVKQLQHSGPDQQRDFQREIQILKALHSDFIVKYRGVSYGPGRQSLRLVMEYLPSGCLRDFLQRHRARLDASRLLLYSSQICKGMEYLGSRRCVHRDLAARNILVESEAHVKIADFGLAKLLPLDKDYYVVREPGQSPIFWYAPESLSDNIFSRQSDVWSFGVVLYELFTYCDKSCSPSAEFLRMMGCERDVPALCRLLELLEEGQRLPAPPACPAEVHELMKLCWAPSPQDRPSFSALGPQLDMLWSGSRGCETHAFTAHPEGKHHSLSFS
Procedure: as §1

PIM1 = target: T11, PIM1 (Homo sapiens, UniProt P11309)
T11 construct: purchased Reaction Biology Corporation
T11 sequence (P11309 whole entry): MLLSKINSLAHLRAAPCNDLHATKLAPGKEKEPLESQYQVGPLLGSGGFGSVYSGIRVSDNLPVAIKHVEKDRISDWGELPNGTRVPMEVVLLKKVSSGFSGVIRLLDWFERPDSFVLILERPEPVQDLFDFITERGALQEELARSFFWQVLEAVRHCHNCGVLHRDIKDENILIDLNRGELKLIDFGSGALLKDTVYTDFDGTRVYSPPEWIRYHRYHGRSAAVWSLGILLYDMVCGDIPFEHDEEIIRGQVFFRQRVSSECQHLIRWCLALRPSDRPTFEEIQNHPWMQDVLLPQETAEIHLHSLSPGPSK
Procedure: as §1

PIM2 = target: T12, PIM2 (Homo sapiens, UniProt Q9P1W9)
T12 construct: purchased Reaction Biology Corporation
T12 sequence (Q9P1W9 whole entry): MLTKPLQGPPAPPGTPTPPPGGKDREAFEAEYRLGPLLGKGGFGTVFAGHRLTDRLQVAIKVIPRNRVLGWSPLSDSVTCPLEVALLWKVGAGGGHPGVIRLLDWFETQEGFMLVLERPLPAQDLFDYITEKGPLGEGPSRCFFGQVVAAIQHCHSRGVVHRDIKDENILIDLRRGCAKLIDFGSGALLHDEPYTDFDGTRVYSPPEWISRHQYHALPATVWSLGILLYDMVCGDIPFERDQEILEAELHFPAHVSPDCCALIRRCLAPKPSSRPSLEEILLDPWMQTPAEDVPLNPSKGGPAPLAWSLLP
Procedure: as §1

PLK1 = target: T13, PLK1 (Homo sapiens, UniProt P53350)
T13 construct: purchased Reaction Biology Corporation
T13 sequence (P53350 whole entry): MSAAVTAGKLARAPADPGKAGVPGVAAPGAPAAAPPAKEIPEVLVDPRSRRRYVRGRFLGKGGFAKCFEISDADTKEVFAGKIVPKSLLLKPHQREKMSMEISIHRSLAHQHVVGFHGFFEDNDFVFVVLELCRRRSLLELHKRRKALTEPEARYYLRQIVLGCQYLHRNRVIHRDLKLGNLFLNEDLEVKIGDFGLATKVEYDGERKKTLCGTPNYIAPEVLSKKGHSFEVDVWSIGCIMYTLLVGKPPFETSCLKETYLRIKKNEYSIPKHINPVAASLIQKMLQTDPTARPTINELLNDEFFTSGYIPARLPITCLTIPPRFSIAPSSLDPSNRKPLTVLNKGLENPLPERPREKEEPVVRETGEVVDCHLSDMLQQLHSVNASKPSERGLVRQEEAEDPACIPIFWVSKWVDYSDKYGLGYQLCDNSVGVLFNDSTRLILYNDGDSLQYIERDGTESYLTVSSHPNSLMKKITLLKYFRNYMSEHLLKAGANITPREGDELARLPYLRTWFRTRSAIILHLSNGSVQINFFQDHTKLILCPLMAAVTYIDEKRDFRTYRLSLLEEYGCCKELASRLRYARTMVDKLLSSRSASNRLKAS
Procedure: as §1

PLK2 = target: T14, PLK2 (Homo sapiens, UniProt Q9NYY3)
T14 construct: purchased Reaction Biology Corporation
T14 sequence (Q9NYY3 whole entry): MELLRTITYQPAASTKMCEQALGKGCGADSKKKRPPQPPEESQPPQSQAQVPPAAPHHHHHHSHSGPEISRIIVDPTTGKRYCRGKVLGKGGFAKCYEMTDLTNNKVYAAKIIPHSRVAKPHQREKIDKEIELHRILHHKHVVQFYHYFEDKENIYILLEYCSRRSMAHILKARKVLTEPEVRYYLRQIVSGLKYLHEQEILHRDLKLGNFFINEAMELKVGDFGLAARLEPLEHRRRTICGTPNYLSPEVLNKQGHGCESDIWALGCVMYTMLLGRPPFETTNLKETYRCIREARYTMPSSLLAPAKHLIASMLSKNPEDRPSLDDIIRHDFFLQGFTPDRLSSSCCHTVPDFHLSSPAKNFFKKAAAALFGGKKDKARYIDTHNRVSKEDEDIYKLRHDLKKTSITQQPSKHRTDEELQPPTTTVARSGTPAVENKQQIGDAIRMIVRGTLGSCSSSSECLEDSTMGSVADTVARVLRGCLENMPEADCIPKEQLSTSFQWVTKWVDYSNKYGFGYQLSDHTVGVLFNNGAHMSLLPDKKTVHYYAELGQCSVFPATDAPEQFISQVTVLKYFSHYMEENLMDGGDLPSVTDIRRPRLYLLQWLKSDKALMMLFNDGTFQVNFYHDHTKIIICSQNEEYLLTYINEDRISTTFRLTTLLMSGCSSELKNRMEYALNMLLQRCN
Procedure: as §1

**Q.** What does the source list for `CN1CCN(c2ccc(Nc3ncc(/C=C/C#N)c(NC4CCCC4)n3)cc2)CC1` [Compound 8h, 3-{4-Cyclopentylamino-2-[4-(4-methylpiperazin-1-yl)phenylamino]pyrimidin-5-yl}acrylonitrile]?
**A.** IC50 (ABL1): < 100 nM; IC50 (AKT1): > 1000 nM; IC50 (ARK5/NUAK1): < 100 nM; IC50 (Aurora B): < 100 nM; IC50 (CDK2/cyclin A): > 1000 nM; IC50 (CDK6/cyclin D1): 100 to 1000 nM; IC50 (CHK2): 100 to 1000 nM; IC50 (FLT3): < 100 nM; IC50 (JAK1): 100 to 1000 nM; IC50 (JAK3): 100 to 1000 nM; IC50 (PIM1): > 1000 nM; IC50 (PIM2): > 1000 nM; IC50 (PLK1): 100 to 1000 nM; IC50 (PLK2): > 1000 nM
